How the values were obtained:
[1] = Formation of 1,5-cz-[M(Lig)] from Lig and M^III ions (metal dependent click-zip) (Charts 4, 5); assay type: physicochemical; conditions: MOPS/NaOH buffer pH 7.0, TD728, TD827 in 50% i-PrOH; for conversion to 1,5-cz-[M(Lig)], Y^III: TD714 sum of two diastereoisomers
[2] = Formation of 1,5-cz-[Ln(Lig)] from Lig and Ln^III ions (metal dependent click-zip), MOPS/NaOH buffer pH 7.0, analytical HPLC (Charts 1, 2); conditions: MOPS/NaOH buffer pH 7.0

| SMILES | conversion to 1,5-cz-[M(Lig)], Sc^III ([1]; 1 week at 80° C.) | conversion to 1,5-cz-[M(Lig)], Y^III ([1]; 1 week at 80° C.) | conversion to 1,5-cz-[M(Lig)], Sc^III ([1]; 1 hour at 80° C.) | conversion to 1,5-cz-[M(Lig)], Y^III ([1]; 1 hour at 80° C.) | conversion to 1,5-cz-[Ln(Lig)], Ce^III ([2]; after 1 week at 80° C.) | conversion to 1,5-cz-[Ln(Lig)], Ce^III ([2]; after 1 hour at 80° C.) | conversion to 1,5-cz-[Ln(Lig)], Dy^III ([2]; after 1 week at 80° C.) | conversion to 1,5-cz-[Ln(Lig)], Dy^III ([2]; after 1 hour at 80° C.) | conversion to 1,5-cz-[Ln(Lig)], Er^III ([2]; after 1 week at 80° C.) | conversion to 1,5-cz-[Ln(Lig)], Er^III ([2]; after 1 hour at 80° C.) | conversion to 1,5-cz-[Ln(Lig)], Eu^III ([2]; after 1 week at 80° C.) | conversion to 1,5-cz-[Ln(Lig)], Eu^III ([2]; after 1 hour at 80° C.) | conversion to 1,5-cz-[Ln(Lig)], Gd^III ([2]; after 1 week at 80° C.) | conversion to 1,5-cz-[Ln(Lig)], Gd^III ([2]; after 1 hour at 80° C.) | conversion to 1,5-cz-[Ln(Lig)], Ho^III ([2]; after 1 week at 80° C.) | conversion to 1,5-cz-[Ln(Lig)], Ho^III ([2]; after 1 hour at 80° C.) | conversion to 1,5-cz-[Ln(Lig)], La^III ([2]; after 1 week at 80° C.) | conversion to 1,5-cz-[Ln(Lig)], La^III ([2]; after 1 hour at 80° C.) | conversion to 1,5-cz-[Ln(Lig)], Lu^III ([2]; after 1 week at 80° C.) | conversion to 1,5-cz-[Ln(Lig)], Lu^III ([2]; after 1 hour at 80° C.) | also measured |
| --- | --- | --- | --- | --- | --- | --- | --- | --- | --- | --- | --- | --- | --- | --- | --- | --- | --- | --- | --- | --- | --- |
| [N-]=[N+]=NCc1cccc(CN2CCN(CC(=O)O)CCN(Cc3cccc(C#CC4CC4)n3)CCN(CC(=O)O)CC2)n1 [TD943] | 5% | 74% | 0% | 1% | 4% | 0% | 65% | 1% | 88% | 2% | 36% | 0% | 40% | 0% | 77% | 2% | 5% | 0% | 97% | 5% | conversion to 1,5-cz-[Ln(Lig)], Nd^III ([2]; after 1 week at 80° C.): 16%; conversion to 1,5-cz-[Ln(Lig)], Nd^III ([2]; after 1 hour at 80° C.): 0%; conversion to 1,5-cz-[Ln(Lig)], Pr^III ([2]; after 1 week at 80° C.): 10%; conversion to 1,5-cz-[Ln(Lig)], Pr^III ([2]; after 1 hour at 80° C.): 0%; conversion to 1,5-cz-[Ln(Lig)], Sm^III ([2]; after 1 week at 80° C.): 29%; conversion to 1,5-cz-[Ln(Lig)], Sm^III ([2]; after 1 hour at 80° C.): 0%; conversion to 1,5-cz-[Ln(Lig)], Tb^III ([2]; after 1 week at 80° C.): 56%; conversion to 1,5-cz-[Ln(Lig)], Tb^III ([2]; after 1 hour at 80° C.): 1%; conversion to 1,5-cz-[Ln(Lig)], Tm^III ([2]; after 1 week at 80° C.): 94%; conversion to 1,5-cz-[Ln(Lig)], Tm^III ([2]; after 1 hour at 80° C.): 3%; conversion to 1,5-cz-[Ln(Lig)], Yb^III ([2]; after 1 week at 80° C.): 97%; conversion to 1,5-cz-[Ln(Lig)], Yb^III ([2]; after 1 hour at 80° C.): 3% |
| [N-]=[N+]=NCc1cccc(CN2CCN(CC(=O)O)CCN(Cc3cccc(C#CC4CCNCC4)n3)CCN(CC(=O)O)CC2)n1 [TD1127] | 29% | 83% | 0% | 2% | 7% | 0% | 80% | 2% | 91% | 4% | 53% | 1% | 56% | 1% | 86% | 3% | 18% | 0% | 97% | 13% | conversion to 1,5-cz-[Ln(Lig)], Nd^III ([2]; after 1 week at 80° C.): 25%; conversion to 1,5-cz-[Ln(Lig)], Nd^III ([2]; after 1 hour at 80° C.): 0%; conversion to 1,5-cz-[Ln(Lig)], Pr^III ([2]; after 1 week at 80° C.): 15%; conversion to 1,5-cz-[Ln(Lig)], Pr^III ([2]; after 1 hour at 80° C.): 0%; conversion to 1,5-cz-[Ln(Lig)], Sm^III ([2]; after 1 week at 80° C.): 46%; conversion to 1,5-cz-[Ln(Lig)], Sm^III ([2]; after 1 hour at 80° C.): 0%; conversion to 1,5-cz-[Ln(Lig)], Tb^III ([2]; after 1 week at 80° C.): 72%; conversion to 1,5-cz-[Ln(Lig)], Tb^III ([2]; after 1 hour at 80° C.): 1%; conversion to 1,5-cz-[Ln(Lig)], Tm^III ([2]; after 1 week at 80° C.): 93%; conversion to 1,5-cz-[Ln(Lig)], Tm^III ([2]; after 1 hour at 80° C.): 7%; conversion to 1,5-cz-[Ln(Lig)], Yb^III ([2]; after 1 week at 80° C.): 95%; conversion to 1,5-cz-[Ln(Lig)], Yb^III ([2]; after 1 hour at 80° C.): 10% |

From patent US20250147039A1, “Compounds for complexation of rare earth elements and/or s-, p-, d- block metals, their coordination compounds, peptide conjugates, method of their preparation and use thereof” (USTAV ORGANICKE CHEMIE A BIOCHEMIE AV CR V.V.I., priority 2021, published 2025)
